Measured values published in the supplement of paper PMC6045584.
± gives the standard deviation of the averaged measurements.

compound: Cc1ccc(-c2cc(C(F)(F)F)nn2-c2ccc(S(N)(=O)=O)cc2)cc1 [CELECOXIB]; assay: surviving fraction relative to DMSO-only wells; higher = less growth inhibition; details: 50 nM; exposure time: 5 days
In short: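 Lines were retained only if, across three screens, replicate Pearson r was >0.7 and median Z' was >0.3. Viability was measured as CellTiter-Glo luminescence and reported as surviving fraction relative to the median of DMSO-only wells. Readings followed 10 minutes at room temperature, after log-phase tumour cells seeded at 250–500 per well in 384-well plates had been exposed, from 24 hours after seeding, continuously for five days to inhibitors at 0.5, 1, 5, 10, 50, 100, 500 and 1000 nM.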

Q: Which surviving fraction does the source give for JIMT1 BREAST here?
A: 1.04 ± 0.021

Q: For LM7 BONE, which surviving fraction is on record?
A: 1.04 ± 0.038

Q: How did the surviving fraction turn out when LNCAP PROSTATE was run?
A: 0.919 ± 0.012

Q: Which surviving fraction does the source give for MDAMB134 BREAST here?
A: 1.18 ± 0.2

Q: With MDAMB157 BREAST as the test system, how does the surviving fraction read?
A: 1 ± 0.16

Q: How did the surviving fraction turn out when MDAMB231 BREAST was run?
A: 1.01 ± 0.02

Q: For MDAMB361 BREAST, which surviving fraction is on record?
A: 0.857 ± 0.17

Q: Which surviving fraction does the source give for MDAMB436 BREAST here?
A: 1.03 ± 0.11

Q: How did the surviving fraction turn out when MDAMB468 BREAST was run?
A: 1.2 ± 0.12

Q: How did the surviving fraction turn out when MFM223 BREAST was run?
A: 1.1 ± 0.034

Q: For MG63 BONE, which surviving fraction is on record?
A: 1.09 ± 0.039

Q: How did the surviving fraction turn out when MHM BONE was run?
A: 1.05 ± 0.041

Q: For NCIH441 LUNG, which surviving fraction is on record?
A: 1.11 ± 0.068

Q: How did the surviving fraction turn out when NOS1 BONE was run?
A: 1.18 ± 0.019

Q: With NY BONE as the test system, how does the surviving fraction read?
A: 1.11 ± 0.047

Q: With OS25HAL BONE as the test system, how does the surviving fraction read?
A: 1.06 ± 0.044

Q: OSHN BONE was tested. Which surviving fraction did it give?
A: 1.132 ± 0.0091

Q: RDES SOFT TISSUE was tested. Which surviving fraction did it give?
A: 1.16 ± 0.25

Q: SCC47 HEADNECK was tested. Which surviving fraction did it give?
A: 1.094 ± 0.0075

Q: SCC90 HEADNECK was tested. Which surviving fraction did it give?
A: 1.13 ± 0.11

Q: How did the surviving fraction turn out when SG27 HEADNECK was run?
A: 1.3 ± 0.084

Q: SG28 HEADNECK was tested. Which surviving fraction did it give?
A: 1.2 ± 0.18

Q: For SG31 HEADNECK, which surviving fraction is on record?
A: 1.15 ± 0.17

Q: With SG32 HEADNECK as the test system, how does the surviving fraction read?
A: 1.22 ± 0.063

Q: Which surviving fraction does the source give for SG43 HEADNECK here?
A: 0.938 ± 0.21

Q: How did the surviving fraction turn out when SIHA CERVIX was run?
A: 1.06 ± 0.072

Q: SJSA1 BONE was tested. Which surviving fraction did it give?
A: 1.71 ± 0.07

Q: How did the surviving fraction turn out when SKBR3 BREAST was run?
A: 0.999 ± 0.091

Q: SNU475 LIVER was tested. Which surviving fraction did it give?
A: 1.07 ± 0.026

Q: Which surviving fraction does the source give for SUM44 BREAST here?
A: 1.36 ± 0.47

Q: For SUM149.B1*.S BREAST, which surviving fraction is on record?
A: 1.14 ± 0.055

Q: How did the surviving fraction turn out when SUM159 BREAST was run?
A: 1.08 ± 0.014

Q: Which surviving fraction does the source give for SYO1 SYNOVIAL here?
A: 0.974 ± 0.022

Q: Which surviving fraction does the source give for T47D BREAST here?
A: 1.14 ± 0.054

Q: Which surviving fraction does the source give for U2OS BONE here?
A: 1.05 ± 0.032

Q: How did the surviving fraction turn out when VCAP PROSTATE was run?
A: 1.13 ± 0.018

Q: With VP229 BREAST as the test system, how does the surviving fraction read?
A: 1.15 ± 0.052

Q: How did the surviving fraction turn out when YAMATO SYNOVIAL was run?
A: 1.42 ± 0.11

Q: Which surviving fraction does the source give for ZR751 BREAST here?
A: 1.09 ± 0.084

same assay, conditions: 100 nM; exposure time: 5 days

Q: How did the surviving fraction turn out when JIMT1 BREAST was run?
A: 1.08 ± 0.015

Q: Which surviving fraction does the source give for LM7 BONE here?
A: 1.04 ± 0.023

Q: LNCAP PROSTATE was tested. Which surviving fraction did it give?
A: 0.998 ± 0.083

Q: MDAMB134 BREAST was tested. Which surviving fraction did it give?
A: 1.18 ± 0.12

Q: Which surviving fraction does the source give for MDAMB157 BREAST here?
A: 0.991 ± 0.04

Q: How did the surviving fraction turn out when MDAMB231 BREAST was run?
A: 1.04 ± 0.012

Q: Which surviving fraction does the source give for MDAMB361 BREAST here?
A: 0.89 ± 0.21

Q: MDAMB436 BREAST was tested. Which surviving fraction did it give?
A: 1.03 ± 0.14

Q: With MDAMB468 BREAST as the test system, how does the surviving fraction read?
A: 1.19 ± 0.071

Q: Which surviving fraction does the source give for MFM223 BREAST here?
A: 1.09 ± 0.1

Q: For MG63 BONE, which surviving fraction is on record?
A: 1.12 ± 0.042

Q: With MHM BONE as the test system, how does the surviving fraction read?
A: 1.05 ± 0.025

Q: How did the surviving fraction turn out when NCIH441 LUNG was run?
A: 1.06 ± 0.17

Q: Which surviving fraction does the source give for NOS1 BONE here?
A: 1.21 ± 0.054

Q: How did the surviving fraction turn out when NY BONE was run?
A: 1.1 ± 0.039

Q: OS25HAL BONE was tested. Which surviving fraction did it give?
A: 1.1 ± 0.035

Q: With OSHN BONE as the test system, how does the surviving fraction read?
A: 1.15 ± 0.029

Q: Which surviving fraction does the source give for RDES SOFT TISSUE here?
A: 1.27 ± 0.11

Q: For SCC47 HEADNECK, which surviving fraction is on record?
A: 1.1 ± 0.026

Q: How did the surviving fraction turn out when SCC90 HEADNECK was run?
A: 1.01 ± 0.077

Q: SG27 HEADNECK was tested. Which surviving fraction did it give?
A: 1.17 ± 0.23

Q: Which surviving fraction does the source give for SG28 HEADNECK here?
A: 1.233 ± 0.0057

Q: With SG31 HEADNECK as the test system, how does the surviving fraction read?
A: 1.1 ± 0.063

Q: For SG32 HEADNECK, which surviving fraction is on record?
A: 1.1 ± 0.12

Q: SG43 HEADNECK was tested. Which surviving fraction did it give?
A: 1.14 ± 0.051

Q: With SIHA CERVIX as the test system, how does the surviving fraction read?
A: 1.11 ± 0.026

Q: Which surviving fraction does the source give for SJSA1 BONE here?
A: 1.81 ± 0.054

Q: For SKBR3 BREAST, which surviving fraction is on record?
A: 1.07 ± 0.042

Q: How did the surviving fraction turn out when SNU475 LIVER was run?
A: 1.02 ± 0.046

Q: Which surviving fraction does the source give for SUM44 BREAST here?
A: 1.46 ± 0.53

Q: SUM149.B1*.S BREAST was tested. Which surviving fraction did it give?
A: 1.16 ± 0.038

Q: How did the surviving fraction turn out when SUM159 BREAST was run?
A: 1.1 ± 0.024

Q: SYO1 SYNOVIAL was tested. Which surviving fraction did it give?
A: 0.955 ± 0.043

Q: Which surviving fraction does the source give for T47D BREAST here?
A: 1.15 ± 0.021

Q: With U2OS BONE as the test system, how does the surviving fraction read?
A: 1.09 ± 0.016

Q: For VCAP PROSTATE, which surviving fraction is on record?
A: 1.12 ± 0.072

Q: Which surviving fraction does the source give for VP229 BREAST here?
A: 1.27 ± 0.03

Q: YAMATO SYNOVIAL was tested. Which surviving fraction did it give?
A: 1.47 ± 0.14

Q: For ZR751 BREAST, which surviving fraction is on record?
A: 1.15 ± 0.1
